We go through three molecules from US20250213614A1, “Modified RELA Protein for Inducing Interferon Expression and Engineered Immune Cells with Improved Interferon Expression” (Institut Curie, priority 2022, published 2025).

What all share (assay type): cell-based, human
The subject of assay [1] is CD4+ T cells. The assay is described as follows: IFN-I/III quantification (LEGENDplex) in CD4+ T cells, baseline or after STING stimulation. The note with it: for IFNλ1 after cGAMP stimulation: 2D, 2F. The protocol:
(§1) Plasmapheresis blood pockets were obtained from healthy adult volunteers after informed consent from the EFS (Establishment of French blood collection). Peripheral blood mononuclear cells (PBMCs) were isolated using Ficoll-Paque Plus (GE-17144003) and left overnight at 4° C. in RPMI (Thermo fischer #61870-010) with 10% heat-decomplemented fetal bovine serum (FBS, Eurobio #CVFSVFO0-01). CD14+ cells were enriched by positive selection (Miltenyi #130-050-201), the CD14 negative fraction was subsequently used to isolate total CD4+ T cells by negative selection (Stem Cell #17952). CD14+ cells were cultured in RPMI containing 10% FBS, 5% Penicillin-Streptomycin (PS, Thermo Fisher #10378-016), 50 μg/ml Gentamicin (Thermo Fisher #15750-045) and 10 mM HEPES (Thermo Fisher #15630-056). CD14+ cells were differentiated ex vivo into MDDC by supplementing the culture media with 50 ng/ml IL-4 (Miltenyi #130-093-922) and 10 ng/ml GM-CSF (Miltenyi #130-093-867). MDDC were used for experiments 3 or 4 days following the start of the culture. CD14+ cells were differentiated ex vivo into macrophages by adding 50 ng/ml MCSF (Miltenyi #130-096-492) to the culture media containing RPMI with 1% PS, 5% FBS and 5% human serum (Sigma #H4522). MDM were used 7 days following culture. Freshly isolated CD4+ T cells were cultured in X-VIVO 15 (Lonza #BE02-060F) and activated using anti-CD3 and anti-CD28 Dynabeads (fisher scientific #10548353) at the ratio of 1:5 (bead:cell). 100 U/ml human IL-2 (Immunotools #11340027) was added to cultures 2 days following TCR stimulation and media with IL-2 was replenished every 48 hours. To assess proliferation, freshly isolated CD4+ T cells were stained with cell proliferation dye (thermo fischer #65-0840-85) prior to TCR stimulation.
(§2) CD14+ cells were plated at 1 million cells/ml and transduced with equal volumes of freshly harvested SIV-VLPs and pTRIP-SFFV vectors in the presence of 8 μg/ml protamine (Sigma #P4020). CD4+ T cells were transduced with lentivectors 24 hours post-TCR stimulation in 100 μl of cells (0.2 million cells) and 100 μl of freshly harvested lentivirus in the presence of 8 μg/ml protamine. T cells were spinoculated at 1200 g for 2 hours at 25° C. 0.5 million THP-1 cells in 500 μl media (RPMI 10% FBS 1% PS) were transduced with 500 μl freshly harvested lentivirus in the presence of 8 μg/ml protamine. 1 μg/ml Puromycin (Invivogen #ant-pr-1) was added 2 days post-transduction when cells were transduced with pLKO.1-puro plasmid.
For stimulation of STING by extracellular ligands, 2.5 μg of ADUS100 (invivogen #tlrl-nacda2r-01) or 2′3′-cGAMP (cGAMP, invivogen #tlrl-nacga23-02) was added to 100,000 cells in 100 μl media either on freshly isolated primary cells or 3-4 days post differentiation for MDDC and 3 days post-TCR stimulation for CD4+ T cells. Cells and supernatant were harvested 18-24 hours post stimulation. For delivery of STING ligands after permeabilization, T cells were used 3 or 4 days post TCR stimulation and MDDC were used 3-4 days following differentiation. 150,000 cells were plated in round bottom 96-well plate. Media was removed by centrifugation and 20 μl 2× permeabilization buffer (100 mM HEPES, 200 mM KCl, 6 mM MgCl2, 0.2 mM DTT, 170 mM Sucrose, 2 mM ATP, 2 mM GTP, 0.4% bovine serum albumin (BSA), 20 μg/ml digitonin) and 20 μl cGAMP (12 μg/ml) was added to cells. 18 to 20 hours following stimulation supernatants and cells were harvested. Cells were stained with a fixable viability dye (Invitrogen #65-0865-14) and acquired on a FACSVerse (BD). […]
Where indicated, cells were treated with 5-Azacytidine (5AZA, Sigma #A2385) 48 hours prior to cGAMP stimulation. Fresh 5AZA was added daily to cells, and media was replenished with 5AZA following cGAMP stimulation. 100 nM Trichostatin A (TSA) (sigma #T1952) was added to cells following cGAMP stimulation and left overnight. […]

Assay [2] relates to CD4+ T cells. Description: Bulk RNAseq of activated CD4+ T cells after cGAMP. The note with it: five hours after cGAMP 6 μg/ml. The protocol:
Five hours following cGAMP (6 μg/ml) stimulation of activated CD4+ T cells, total RNA was extracted (Macherey-Nagel #740955.50). […] RNA sequencing libraries were prepared from 500 ng of total RNA using the Illumina TruSeq Stranded mRNA Library preparation kit. A first step of polyA selection using magnetic beads was performed to focus sequencing on polyadenylated transcripts. After fragmentation, cDNA synthesis was performed and resulting fragments were used for dA-tailing and ligated to the TruSeq indexed adapters. PCR amplification was performed to create the final cDNA library (with 13 cycles). After quantification of PCR products, sequencing was carried out using 2*100 cycles (paired-end reads, 100 nucleotides) on a Novaseq6000 instrument, targeting 25M clusters. The data was aligned to the hg19 (ENSEMBL annotation: v.74) genome using the RNA-seq pipeline of the Curie bioinformatics platform, rnaseq v3.1.1. Reads were trimmed with TrimGalore (v.0.6.2) and aligned on the reference genome using STAR (v 2.6.1) ^71. Quality control was done with picard (v.2.18.15), RSeQC (v.2.6.4) and preseq (v.2.0.3)^72. Read counts were generated with STAR. Quality reports were generated with MultiQC (v.1.7). […]

The test system of assay [3] is STING, TBK1, IRF3, RELA, IRF7. The assay is described as follows: Western blot of key signaling proteins involved in STING signaling. The note with it: for endogenous RELA expression: overexpression in CD4+ T cells and MDDC, FIG. 2C. The protocol:
0.5 million cells were lysed for 30 minutes on ice in 50 μl RIPA buffer (50 mM Tris HCl, 150 mM NaCl, 0.1% SDS, 0.5% DOC, 1% NP-40) with Protease inhibitor (Roche #1187358001). To evaluate, phospho-proteins 50 mM NaF and 1 mM sodium orthovanadate were added to the lysis buffer. Protein lysates were cleared by centrifugation at 12,000 g for 10 to 12 minutes at 4° C. 10 μl of 6× Laemmli buffer (fisher scientific #J61337) was added to 50 μl protein lysates and samples were boiled at 95° C. for 15 minutes. Protein samples were resolved on 4%-20% Biorad precast SDS-PAGE gels (#5671125) and transferred onto PVDF membranes (BioRad #1704157). Membranes were blocked in 5% non-fat dry milk in PBS 0.1% tween or in TBS 5% BSA 0.1% Tween to detect phosphorylated proteins. Primary antibodies were used at 1:1000:phospho-STING (clone-D7C3S), STING (clone-D2P2F), serine 172 phospho-TBK1 (clone-D52C2), TBK1 (clone-D11B4), serine 396 phospho IRF3 (clone-D6O1M), IRF3 (clone-D83B9), RELA (clone-C22B4), IRF7 (clone-12G9A36), cGAS (clone-D1 D3G), Actin (clone-C4), Sendai viral proteins (Biozol #MBL-PD029). Secondary anti-rabbit or anti-mouse antibody were used at 1:10,000 (santa cruz #sc-2357, #sc-516102). ECL signal (Biorad #1705061 and #1705062) was recorded on a ChemiDoc Touch Biorad Imager. Data was analyzed and quantified with Image Lab software (Biorad). In figures, dotted lines indicate reordering of lanes from a single original membrane for visualization purpose.

A further assay has as its system MDDC. Description: IFN-I/III quantification (LEGENDplex) in MDDC after STING stimulation. The note with it: lentivector overexpression in MDDC, cGAMP 6 μg/ml; for IFN-I/III response to cGAMP compared to the control condition: FIG. 2D. The protocol:
as §1, §2
For stimulation of STING by extracellular ligands, 2.5 μg of ADUS100 (invivogen #tlrl-nacda2r-01) or 2′3′-cGAMP (cGAMP, invivogen #tlrl-nacga23-02) was added to 100,000 cells in 100 μl media either on freshly isolated primary cells or 3-4 days post differentiation for MDDC and 3 days post-TCR stimulation for CD4+ T cells. Cells and supernatant were harvested 18-24 hours post stimulation. For delivery of STING ligands after permeabilization, T cells were used 3 or 4 days post TCR stimulation and MDDC were used 3-4 days following differentiation. 150,000 cells were plated in round bottom 96-well plate. Media was removed by centrifugation and 20 μl 2× permeabilization buffer (100 mM HEPES, 200 mM KCl, 6 mM MgCl2, 0.2 mM DTT, 170 mM Sucrose, 2 mM ATP, 2 mM GTP, 0.4% bovine serum albumin (BSA), 20 μg/ml digitonin) and 20 μl cGAMP (12 μg/ml) was added to cells. 18 to 20 hours following stimulation supernatants and cells were harvested. Cells were stained with a fixable viability dye (Invitrogen #65-0865-14) and acquired on a FACSVerse (BD).
For experiments with conditioned media, CD4+ T cell- and MDDC-conditioned media refer to […] filtered conditioned media from cultures of activated CD4+ T cell and MDDC, respectively. CD4+ T cells were pretreated with 100 μl of MDDC-conditioned media or of fresh MDDC culture media, 24 hours prior to cGAMP stimulation. […]

[4] abbreviates: lentivector overexpression in CD4+ T cells, FIG. 2B.

For the molecule `Nc1nc2c(ncn2[C@@H]2O[C@@H]3COP(=O)(O)O[C@H]4[C@@H](O)[C@H](n5cnc6c(N)ncnc65)O[C@@H]4COP(=O)(O)O[C@@H]2[C@@H]3O)c(=O)[nH]1` [cGAMP, 2′3′-cGAMP, reference compound], the IFNβ protein entry in the assay with CD4+ T cells [1] (cGAMP delivered by digitonin-mediated membrane permeabilization, FIG. 1F) is given as “undetectable”. The “IFN response to STING ligands” value in the assay with CD4+ T cells [1] (resting blood CD4+ T cells, soluble ligand 1 μg or 2.5 μg, FIG. 1B) is listed as “undetectable”. Moreover, the “IRF7 expression (RNAseq)” value in the assay with CD4+ T cells [2] is reported as “induced”. Further, in assay [3] (6 hours after cGAMP 6 μg/ml, FIG. 1G), the “phosphorylated levels of STING, TBK1 and IRF3, CD4+ T cells versus MDDC” value is reported as “identical”.

Take “RELA: wild type human RELA protein (transcription factor p65, Uniprot Q04206), overexpressed from lentivector [reference compound]”: the “IFN-I/III response to cGAMP, RNA and protein levels” value is on record as “did not significantly enhance” with MDDC (FIG. 2B) and “did not significantly enhance” in the assay on CD4+ T cells [1] (lentivector overexpression in CD4+ T cells, cGAMP 6 μg/ml, FIG. 2B). The “IFN-I/III response to cGAMP compared to the control condition” value with MDDC is reported as “remained unchanged”. In the assay with CD4+ T cells [1] (setting [4]), the “IFNλ1 after cGAMP stimulation” value is “tendency for increased IFNλ1”. Further, the “endogenous RELA expression” value in assay [3] is “no impact”.

B1: RELA K5Q: RELA mutant converting five lysine residues (K122, K123, K310, K314, K315) to glutamine, acetylation mimic (protein, UniProt Q04206 1-551, looked up, variant K122Q K123Q K310Q K314Q K315Q)
Transcription factor p65: MDELFPLIFPAEPAQASGPYVEIIEQPKQRGMRFRYKCEGRSAGSIPGERSTDTTKTHPTIKINGYTGPGTVRISLVTKDPPHRPHPHELVGKDCRDGFYEAELCPDRCIHSFQNLGIQCVQQRDLEQAISQRIQTNNNPFQVPIEEQRGDYDLNAVRLCFQVTVRDPSGRPLRLPPVLSHPIFDNRAPNTAELKICRVNRNSGSCLGGDEIFLLCDKVQKEDIEVYFTGPGWEARGSFSQADVHRQVAIVFRTPPYADPSLQAPVRVSMQLRRPSDRELSEPMEFQYLPDTDDRHRIEEKRKRTYETFQSIMQQSPFSGPTDPRPPPRRIAVPSRSSASVPKPAPQPYPFTSSLSTINYDEFPTMVFPSGQISQASALAPAPPQVLPQAPAPAPAPAMVSALAQAPAPVPVLAPGPPQAVAPPAPKPTQAGEGTLSEALLQLQFDDEDLGALLGNSTDPAVFTDLASVDNSEFQQLLNQGIPVAPHTTEPMLMEYPEAITRLVTGAQRPPDPAPAPLGAPGLPNGLLSGDEDFSSIADMDFSALLSQISS
For the molecule B1, in the assay with MDDC, the “IFN-I/III response to cGAMP compared to the control condition” value is reported as “remained unchanged”. In addition, the “IFNλ1 after cGAMP stimulation” value in the assay with CD4+ T cells [1] (setting [4]) is reported as “abrogated”. Also, the “endogenous RELA expression” value in assay [3] is “no impact”.
